# In publication PMC12396409, “Screening and hit evaluation of a microbial metabolite library against the pathogenic Plasmodium falciparum and Toxoplasma gondii parasites” (International Journal for Parasitology: Drugs and Drug …, 2025):
# Read-outs that look alike come from different tables or passages of the source.
# Tests used:
# [1] = tested on: P. falciparum 3D7 parasites; experiment: P. falciparum growth inhibition assay, 1-cycle (72 h treatment), SYBR DNA staining (library screen at 2 μg/mL and dose-response); type: cell-based, Plasmodium falciparum; settings: for activity at 2 µg/mL: Plasmodium falciparum, 3D7, 72 h
# [2] = tested on: T. gondii RH strain (RH-Tub-eYFP) tachyzoites; experiment: microbe, parasite or virus in culture; type: cell-based, Toxoplasma gondii; settings: 72 h; for percent parasite growth at 2 µg/mL: Toxoplasma gondii
# [3] = tested on: P. falciparum 3D7 parasites; experiment: P. falciparum growth inhibition assay, 2-cycle (120 h treatment), delayed-death screen and dose-response; type: cell-based, Plasmodium falciparum; settings: for activity at 2 µg/mL: Plasmodium falciparum, 3D7, 120 h
# [4] = library screen at 2 μg/mL, 72 h, % growth, replicate 1
# [5] = library screen at 2 μg/mL, 72 h, % growth, replicate 2
# [6] = library screen at 2 μg/mL, % growth, replicate 1
# [7] = library screen at 2 μg/mL, % growth, replicate 2
# [8] = library screen at 2 μg/mL, 120 h, % growth, replicate 1
# [9] = library screen at 2 μg/mL, 120 h, % growth, replicate 2
# [10] = P. falciparum 3D7, 72 h, parasite screen at 2 μg/mL, % growth, replicate 1
# [11] = P. falciparum 3D7, 72 h, parasite screen at 2 μg/mL, % growth, replicate 2
# [12] = T. gondii, parasite screen at 2 μg/mL, % growth, replicate 1
# [13] = T. gondii, parasite screen at 2 μg/mL, % growth, replicate 2
# [14] = P. falciparum 3D7, 120 h, parasite screen at 2 μg/mL, % growth, replicate 1
# [15] = P. falciparum 3D7, 120 h, parasite screen at 2 μg/mL, % growth, replicate 2
structure (smiles),measurement,setting,value
CC(=O)c1c(O)cc(O)c(C(C)=O)c1O [Diacetylphloroglucinol],Pf_72h_%Growth_Rep1,[1]; [4],86.52%
same,Pf_72h_%Growth_Rep2,[1]; [5],90.35%
same,Tg_72h_%Growth_Rep1,[2]; [6],140.70%
same,Tg_72h_%Growth_Rep2,[2]; [7],94.75%
same,Pf_120h_%Growth_Rep1,[3]; [8],64.84%
same,Pf_120h_%Growth_Rep2,[3]; [9],102.18%
CCC1OC2(CCC1C)CC1CC(CC=C(C)CC(C)C=CC=C3COC4C(=NO)C(C)=CC(C(=O)O1)C34O)O2 (stereo not drawn) [BIA-M1532],Pf_72h_%Growth_Rep1,[1]; [10],26.87%
same,Pf_72h_%Growth_Rep2,[1]; [11],18.08%
same,Tg_72h_%Growth_Rep1,[2]; [12],83.72%
same,Tg_72h_%Growth_Rep2,[2]; [13],81.98%
same,Pf_120h_%Growth_Rep1,[3]; [14],8.04%
same,Pf_120h_%Growth_Rep2,[3]; [15],16.57%
CC(=O)c1c(O)cc(O)cc1O [BIA-M1378],Pf_72h_%Growth_Rep1,[1]; [10],82.52%
same,Pf_72h_%Growth_Rep2,[1]; [11],84.34%
same,Tg_72h_%Growth_Rep1,[2]; [12],125.07%
same,Tg_72h_%Growth_Rep2,[2]; [13],89.41%
same,Pf_120h_%Growth_Rep1,[3]; [14],82.35%
same,Pf_120h_%Growth_Rep2,[3]; [15],134.53%
O=C(N[C@H](CO)[C@H](O)c1ccc([N+](=O)[O-])cc1)C(Cl)Cl [Chloramphenicol],activity at 2 µg/mL,"[1]; P. falciparum, 72 h, screen at 2 μg/mL, replicate 1, read-out: Pf_72h_%Growth_Rep1",85.8%
same,activity at 2 µg/mL,"[1]; P. falciparum, 72 h, screen at 2 μg/mL, replicate 2, read-out: Pf_72h_%Growth_Rep2",84.9%
same,percent parasite growth at 2 µg/mL,"[2]; T. gondii, screen at 2 μg/mL, replicate 1, read-out: Tg_72h_%Growth_Rep1",86.7%
same,percent parasite growth at 2 µg/mL,"[2]; T. gondii, screen at 2 μg/mL, replicate 2, read-out: Tg_72h_%Growth_Rep2",85.3%
same,activity at 2 µg/mL,"[3]; P. falciparum, 120 h, screen at 2 μg/mL, replicate 1, read-out: Pf_120h_%Growth_Rep1",117%
same,activity at 2 µg/mL,"[3]; P. falciparum, 120 h, screen at 2 μg/mL, replicate 2, read-out: Pf_120h_%Growth_Rep2",64.9%
CC[C@@H](C(=O)[C@@H](C)[C@@H](O)[C@H](C)[C@@H]1O[C@@H]([C@@H](CC)C(=O)O)CC[C@@H]1C)[C@H]1O[C@]2(C=C[C@@H](O)[C@]3(CC[C@@](C)([C@H]4CC[C@](O)(CC)[C@H](C)O4)O3)O2)[C@H](C)C[C@@H]1C [Salinomycin],Pf_72h_%Growth_Rep2,"[1]; P. falciparum, 72 h, parasite screen 2 μg/mL, % growth, replicate 2",-1.92%
same,activity at 2 µg/mL,"[1]; P. falciparum, 72 h, parasite screen 2 μg/mL, % growth, replicate 1, read-out: Pf_72h_%Growth_Rep1",3.76%
same,Tg_72h_%Growth_Rep2,"[2]; T. gondii, parasite screen 2 μg/mL, % growth, replicate 2",0.21%
same,percent parasite growth at 2 µg/mL,"[2]; T. gondii, parasite screen 2 μg/mL, % growth, replicate 1, read-out: Tg_72h_%Growth_Rep1",2.46%
same,Pf_120h_%Growth_Rep2,"[3]; P. falciparum, 120 h, parasite screen 2 μg/mL, % growth, replicate 2",1.02%
same,activity at 2 µg/mL,"[3]; P. falciparum, 120 h, parasite screen 2 μg/mL, % growth, replicate 1, read-out: Pf_120h_%Growth_Rep1",13.6%
COC1=C(OC)C(=O)C(C)=C(C)C1=O [Aurantiogliocladin],Pf_72h_%Growth_Rep1,[1]; [4],5.55%
same,Pf_72h_%Growth_Rep2,[1]; [5],9.01%
same,Tg_72h_%Growth_Rep1,[2]; [6],92.07%
same,Tg_72h_%Growth_Rep2,[2]; [7],99.65%
same,Pf_120h_%Growth_Rep1,[3]; [8],10.46%
same,Pf_120h_%Growth_Rep2,[3]; [9],-13.06%
C[C@@H]1[C@H](O)[C@@H](C)/C=C/C=C/C=C/C=C/C=C/C=C/C=C/[C@H](O[C@@H]2O[C@H](C)[C@@H](O)[C@H](N)[C@@H]2O)C[C@@H]2O[C@](O)(C[C@@H](O)C[C@@H](O)[C@H](O)CC[C@@H](O)C[C@@H](O)CC(=O)O[C@H]1C)C[C@H](O)[C@H]2C(=O)O [Amphotericin B],activity at 2 µg/mL,"[1]; library screen at 2 μg/mL, 72 h, % growth, replicate 1, read-out: Pf_72h_%Growth_Rep1",84.3%
same,activity at 2 µg/mL,"[1]; library screen at 2 μg/mL, 72 h, % growth, replicate 2, read-out: Pf_72h_%Growth_Rep2",90.2%
same,percent parasite growth at 2 µg/mL,"[2]; library screen at 2 μg/mL, % growth, replicate 1, read-out: Tg_72h_%Growth_Rep1",101%
same,percent parasite growth at 2 µg/mL,"[2]; library screen at 2 μg/mL, % growth, replicate 2, read-out: Tg_72h_%Growth_Rep2",86.5%
same,activity at 2 µg/mL,"[3]; library screen at 2 μg/mL, 120 h, % growth, replicate 1, read-out: Pf_120h_%Growth_Rep1",77%
same,activity at 2 µg/mL,"[3]; library screen at 2 μg/mL, 120 h, % growth, replicate 2, read-out: Pf_120h_%Growth_Rep2",69.3%
CN1C(=O)[C@]23C[C@H]4C(C)(C)[C@]5(CNc6c5ccc5c6OC=CC(C)(C)O5)C[C@@]41CN2CC[C@@]3(C)O [Derquantel],Pf_72h_%Growth_Rep1,[1]; [4],84.92%
same,Pf_72h_%Growth_Rep2,[1]; [5],84.29%
same,Tg_72h_%Growth_Rep1,[2]; [6],207.28%
same,Tg_72h_%Growth_Rep2,[2]; [7],97.75%
same,Pf_120h_%Growth_Rep1,[3]; [8],88.90%
same,Pf_120h_%Growth_Rep2,[3]; [9],91.44%
